{
  "source": "PubChem BioAssay AID330",
  "about": "(DTP/NCI, 2004)",
  "tested_on": "P388 leukemia ip, CD2F1 mice, survival T/C",
  "assay": "NCI In Vivo Anticancer Drug Screen. Data for tumor model P388 Leukemia (intraperitoneal) in CD2F1 (CDF1) mice",
  "settings": "endpoint: median survival time, higher = longer survival",
  "outline": "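Mice carrying the transplanted tumor received test compound or vehicle. Survival was recorded in each group, and the value is the treated-group measurement divided by that of the vehicle-treated control group.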",
  "key": {"[1]": {"settings": "dose: 25.0 mg/kg/injection, schedule: Q01DX009 (ip), vehicle: saline with Tween-80"}, "[2]": {"settings": "dose: 50.0 mg/kg/injection, schedule: Q01DX009 (ip), vehicle: saline with Tween-80"}, "[3]": {"settings": "dose: 100.0 mg/kg/injection, schedule: Q01DX009 (ip), vehicle: saline with Tween-80"}, "[4]": {"settings": "dose: 60.0 mg/kg/injection, schedule: Q01DX005 (ip), vehicle: saline with Tween-80"}, "[5]": {"settings": "dose: 120.0 mg/kg/injection, schedule: Q01DX005 (ip), vehicle: saline with Tween-80"}, "[6]": {"settings": "dose: 240.0 mg/kg/injection, schedule: Q01DX005 (ip), vehicle: saline with Tween-80"}, "[7]": {"settings": "dose: 50.0 mg/kg/injection, schedule: Q01DX005 (ip), vehicle: saline with Tween-80"}, "[8]": {"settings": "dose: 100.0 mg/kg/injection, schedule: Q01DX005 (ip), vehicle: saline with Tween-80"}, "[9]": {"settings": "dose: 200.0 mg/kg/injection, schedule: Q01DX005 (ip), vehicle: saline with Tween-80"}, "[10]": {"settings": "dose: 50.0 mg/kg/injection, schedule: Q01DX005 (ip), vehicle: Klucel (hydroxypropylcellulose) (HPC)"}, "[11]": {"settings": "dose: 100.0 mg/kg/injection, schedule: Q01DX005 (ip), vehicle: Klucel (hydroxypropylcellulose) (HPC)"}},
  "note": "Values joined by “and” are separate entries in the source; they are usually repeats but may differ in a detail not shown here. Equal values may be shown once. Inconclusive results and toxic doses are left out. Peptide text beside a SMILES is read from it. * marks the point of attachment. Cbz = O=C(OCc1ccccc1)*",
  "data": [
    {"smiles": "O=[N+]([O-])c1ccc2nc(Cl)sc2c1", "values": [
      {"measurement": "T/C", "setting": "[1]", "value": "95 % of control"},
      {"measurement": "T/C", "setting": "[2]", "value": "90 % of control"},
      {"measurement": "T/C", "setting": "[3]", "value": "109 % of control"}
    ]},
    {"smiles": "COC(=O)c1nnn(-c2c(C)cccc2C(C)C)c1C(=O)c1ccccc1", "values": [
      {"measurement": "T/C", "setting": "[4]", "value": "100 % of control"},
      {"measurement": "T/C", "setting": "[5]", "value": "109 % of control"},
      {"measurement": "T/C", "setting": "[6]", "value": "94 % of control"}
    ]},
    {"smiles": "CC(NC(=O)C(Cc1ccc(O)cc1)NC(=O)C(C)NC(=O)OCc1ccccc1)C(=O)O", "note": "(stereo not drawn) (Cbz-Ala-Tyr-Ala-OH; configuration not given here)", "values": [
      {"measurement": "T/C", "setting": "[7]", "value": "100 % of control"},
      {"measurement": "T/C", "setting": "[8]", "value": "104 % of control"},
      {"measurement": "T/C", "setting": "[9]", "value": "99 % of control"}
    ]},
    {"smiles": "CN(C)CCC(=O)c1ccccc1", "values": [
      {"measurement": "T/C", "setting": "dose: 50.0 mg/kg/injection, schedule: Q01DX009 (ip), vehicle: saline", "value": "104 % of control"},
      {"measurement": "T/C", "setting": "dose: 100.0 mg/kg/injection, schedule: Q01DX009 (ip), vehicle: saline", "value": "110 % of control"}
    ]},
    {"smiles": "O=C(O)/C=C/c1c2ccc(=O)c(O)c-2oc2c(O)c(O)ccc12", "values": [
      {"measurement": "T/C", "setting": "[4]", "value": "93 % of control"},
      {"measurement": "T/C", "setting": "[5]", "value": "93 % of control"},
      {"measurement": "T/C", "setting": "[6]", "value": "92 % of control"}
    ]},
    {"smiles": "CSC1=NN(C(C)=O)C(c2ccccn2)S1", "note": "(centres undefined)", "values": [
      {"measurement": "T/C", "setting": "[10]", "value": "100 % of control"},
      {"measurement": "T/C", "setting": "[11]", "value": "100 % of control"},
      {"measurement": "T/C", "setting": "dose: 200.0 mg/kg/injection, schedule: Q01DX005 (ip), vehicle: Klucel (hydroxypropylcellulose) (HPC)", "value": "101 % of control"}
    ]},
    {"smiles": "CC(Oc1cc(Cl)c(Cl)cc1Cl)C(=O)NC(Cc1ccccc1)C(=O)O", "note": "(centres undefined)", "values": [
      {"measurement": "T/C", "setting": "[7]", "value": "105 % of control"},
      {"measurement": "T/C", "setting": "[8]", "value": "109 % of control"},
      {"measurement": "T/C", "setting": "[9]", "value": "95 % of control"}
    ]},
    {"smiles": "COc1cc(C(=O)CC(=O)CCC(=O)Nc2ccc(C)c(C)c2)ccc1O", "values": [
      {"measurement": "T/C", "setting": "[4]", "value": "102 % of control"},
      {"measurement": "T/C", "setting": "[5]", "value": "104 % of control"},
      {"measurement": "T/C", "setting": "[6]", "value": "102 % of control"}
    ]},
    {"smiles": "S=c1[nH]nc2nc3c4ccccc4c4ncccc4c3nn12", "values": [
      {"measurement": "T/C", "setting": "dose: 100.0 mg/kg/injection, schedule: Q01DX001 (ip), vehicle: saline with Tween-80", "value": "92 % of control"},
      {"measurement": "T/C", "setting": "dose: 200.0 mg/kg/injection, schedule: Q01DX001 (ip), vehicle: saline with Tween-80", "value": "91 % of control"},
      {"measurement": "T/C", "setting": "dose: 400.0 mg/kg/injection, schedule: Q01DX001 (ip), vehicle: saline with Tween-80", "value": "100 % of control"}
    ]},
    {"smiles": "COC(=O)[C@@H]1O[C@H]2OC=C[C@H]21", "values": [
      {"measurement": "T/C", "setting": "dose: 12.5 mg/kg/injection, schedule: Q01DX005 (ip), vehicle: saline", "value": "112 % of control"},
      {"measurement": "T/C", "setting": "dose: 25.0 mg/kg/injection, schedule: Q01DX005 (ip), vehicle: saline", "value": "108 % of control"},
      {"measurement": "T/C", "setting": "dose: 50.0 mg/kg/injection, schedule: Q01DX005 (ip), vehicle: saline", "value": "99 % of control and 100 % of control"}
    ]},
    {"smiles": "C(=C\\c1cccnc1)/c1ccncc1", "values": [
      {"measurement": "T/C", "setting": "[1]", "value": "95 % of control"},
      {"measurement": "T/C", "setting": "[2]", "value": "104 % of control"},
      {"measurement": "T/C", "setting": "[3]", "value": "109 % of control"}
    ]},
    {"smiles": "CCN1CCC(=O)C1", "values": [
      {"measurement": "T/C", "setting": "dose: 50.0 mg/kg/injection, schedule: Q04DX003 (ip), vehicle: saline with Tween-80", "value": "104 % of control"},
      {"measurement": "T/C", "setting": "dose: 100.0 mg/kg/injection, schedule: Q04DX003 (ip), vehicle: saline with Tween-80", "value": "105 % of control"},
      {"measurement": "T/C", "setting": "dose: 200.0 mg/kg/injection, schedule: Q04DX003 (ip), vehicle: saline with Tween-80", "value": "105 % of control"}
    ]},
    {"smiles": "C[n+]1c(-c2ccccc2)c2ccccn2c1Sc1n2ccccc2c(-c2ccccc2)[n+]1C", "values": [
      {"measurement": "T/C", "setting": "dose: 1.56 mg/kg/injection, schedule: Q01DX009 (ip), vehicle: Klucel (hydroxypropylcellulose) (HPC)", "value": "100 % of control"},
      {"measurement": "T/C", "setting": "dose: 3.12 mg/kg/injection, schedule: Q01DX009 (ip), vehicle: Klucel (hydroxypropylcellulose) (HPC)", "value": "102 % of control"},
      {"measurement": "T/C", "setting": "dose: 6.25 mg/kg/injection, schedule: Q01DX009 (ip), vehicle: Klucel (hydroxypropylcellulose) (HPC)", "value": "90 % of control and 97 % of control"}
    ]},
    {"smiles": "CC(=O)Nc1ccc(Cl)cc1C(Cl)c1ccccc1", "note": "(centres undefined)", "values": [
      {"measurement": "T/C", "setting": "dose: 12.5 mg/kg/injection, schedule: Q01DX005 (ip), vehicle: Klucel (hydroxypropylcellulose) (HPC)", "value": "109 % of control"},
      {"measurement": "T/C", "setting": "dose: 25.0 mg/kg/injection, schedule: Q01DX005 (ip), vehicle: Klucel (hydroxypropylcellulose) (HPC)", "value": "118 % of control"},
      {"measurement": "T/C", "setting": "[10]", "value": "123 % of control and 124 % of control"},
      {"measurement": "T/C", "setting": "[11]", "value": "115 % of control"}
    ]},
    {"smiles": "CC(C)(C)[P+](C)(C)c1ccccc1", "values": [
      {"measurement": "T/C", "setting": "dose: 12.5 mg/kg/injection, schedule: Q04DX003 (ip), vehicle: Klucel (hydroxypropylcellulose) (HPC)", "value": "105 % of control"},
      {"measurement": "T/C", "setting": "dose: 25.0 mg/kg/injection, schedule: Q04DX003 (ip), vehicle: Klucel (hydroxypropylcellulose) (HPC)", "value": "100 % of control"}
    ]}
  ]
}
